In patent US20070167408A1, “NOVEL ALKYL PHOSPHOLIPID DERIVATIVES WITH REDUCED CYTOTOXICITY AND USES THEREOF” (ZENTARIS GmbH, priority 2005, published 2007):
≈ marks a conversion by molar mass, not a printed value.

Experiments:
[1] = system: Candida albicans ATCC 10231; test: Anti-fungal broth microdilution (MIC), fungus D; format: cell-based; conditions: yeast protocol, more than 80% inhibition, 48 h
Protocol: (§1) Anti-fungal activity of selected compounds of the invention was assessed by means of anti-fungal susceptibility tests as follows.
(§2) The antifungal activities of the compounds of the invention against different fungi were measured according to standard broth microdilution methods of the US National Committee for Clinical Laboratory standards (NCCLS) for yeasts (NCCLS document M27-A, 1997) and filamentous fungi (NCCLS document M38-A, 2002).
(§3) Stock solutions of compounds of the invention were freshly prepared on the days of experiments equal to 1.28 mg/10 ml media. Serial dilutions were performed to achieve the following testing concentrations: 64 μg/ml, 32 μg/ml, 16 μg/ml, 8 μg/ml, 4 μg/ml, 2 μg/ml, 1 μg/ml, 0.5 μg/ml, 0.25 μg/ml and 0.125 μg/ml.
(§4) An inoculum of 10^6 CFU/ml of the fungi strain was prepared in the appropriate medium and transferred to test tubes for incubation.
(§5) The method is used to determine the minimum inhibitory concentrations (MIC) of drugs on fungi strains. […] For the filamentous fungi protocol, MIC determination took place after 48 to 72 h of culture at 35° C. and was defined at that concentration which produced more than 50% visible growth inhibition.

[2] = system: Cryptococcus neoformans H99; test: Anti-fungal broth microdilution (MIC), fungus I; format: cell-based; conditions: yeast protocol, more than 80% inhibition, 48 h
Protocol: as §1, §2, §3, §4, §5

Candida albicans TS3 = test: Anti-fungal broth microdilution (MIC), fungus F; format: cell-based; conditions: yeast protocol, more than 80% inhibition, 48 h
Protocol: as §1, §2, §3, §4, §5

[3] = system: Aspergillus fumigatus ATCC 204305; test: Anti-fungal broth microdilution (MIC), fungus A; format: cell-based; conditions: filamentous protocol, more than 50% growth inhibition, 48 to 72 h
Protocol: as §1, §2, §3, §4, §5

[4] = system: Cryptococcus neoformans ATCC 90112; test: Anti-fungal broth microdilution (MIC), fungus H; format: cell-based; conditions: yeast protocol, more than 80% inhibition, 48 h
Protocol: as §1, §2, §3, §4, §5

[5] = system: Aspergillus fumigatus 322-384; test: Anti-fungal broth microdilution (MIC), fungus B; format: cell-based; conditions: filamentous protocol, more than 50% growth inhibition, 48 to 72 h
Protocol: as §1, §2, §3, §4, §5

[6] = system: Candida albicans ATCC 90028; test: Anti-fungal broth microdilution (MIC), fungus E; format: cell-based; conditions: yeast protocol, more than 80% inhibition, 48 h
Protocol: as §1, §2, §3, §4, §5

[7] = system: Aspergillus fumigatus 040-200167; test: Anti-fungal broth microdilution (MIC), fungus C; format: cell-based; conditions: filamentous protocol, more than 50% growth inhibition, 48 to 72 h
Protocol: as §1, §2, §3, §4, §5

[8] = system: Cryptococcus gattii ATCC 32608; test: Anti-fungal broth microdilution (MIC), fungus J; format: cell-based; conditions: yeast protocol, more than 80% inhibition, 48 h
Protocol: as §1, §2, §3, §4, §5

[9] = system: Candida parapsilosis ATCC 22019; test: Anti-fungal broth microdilution (MIC), fungus G; format: cell-based; conditions: yeast protocol, more than 80% inhibition, 48 h
Protocol: as §1, §2, §3, §4, §5

[10] = system: PC3 (human prostate carcinoma) cells; test: XTT cytotoxicity assay, PC3 cells; format: cell-based; conditions: Homo sapiens, PC-3; 31.6 μM, second set of experiments; read-out: PC3 % INH [31.6 μM]
Protocol: (§6) Cytotoxicity of selected compounds of the invention against different mammalian cell lines was assessed as follows.
(§7) Human tumor cell lines KB/HeLa (ATCC CCL17, human cervix carcinoma), PC3 (ATCC CRL1435, human prostate carcinoma) and RKOp21 (human colon adenocarcinoma; Schmidt et al., Oncogene 2000, 19: 2423-2429) cells were used in an automated XTT screening assay for the assessment of cytotoxicity.
(§8) The XTT assay quantifies cellular metabolic activity which correlates with cell viability and cell number. Test compounds (selected compounds of the invention and known substances as controls) are dissolved in culture medium at 600 μM and added to the tumor cells in 10 different concentrations in a semi-logarithmic fashion starting from 100 μM as highest concentration.
(§9) In a second set of experiments employing PC3, RKOp21 and SKOV-3 (ATCC HTB-77, human ovary adenocarcinoma) cells, test and reference compounds were dissolved in 70% Ethanol/30% H2O in a stock concentration of 10 mM and diluted in cell culture medium to yield either 31.6 μM (PC3 and RKOp21) or 100 μM (SKOV-3) final concentration.
(§10) 48 h later cellular metabolic activity of cells treated with test compounds is quantified by measurement of the absorbance at 490 nm (conversion of XTT dye) in comparison to untreated control cells (100% viability).
(§11) KB/HeLa and PC3 cells were cultivated in RPMI 1640 medium (Gibco, Cat. No. 42401-018) supplemented with 10% heat inactivated fetal calf serum (FCS, Biochrom AG, Cat. No. S0115), 2 mM L-glutamine (Gibco, Cat. No. 25030-24) and 2% Penicillin-Streptomycin (PenStrep, Gibco, Cat. No. 15140-122). RKOp21 cells were grown in DMEM+GlutaMAXTM-I medium (Gibco, Cat. No. 61965-026) supplemented with 10% heat inactivated fetal calf serum (FCS, Biochrom AG, Cat. No. S0115), 2 mM L-glutamine (Gibco, Cat. No. 25030-24), 2% Penicillin-Streptomycin (PenStrep, Gibco, Cat. No. 15140-122) and 1% 1M HEPES (Gibco, Cat. No. 15630-056). All cells were cultured at 37° C. in 5% CO2 humidified air.
(§12) On the first day of the experiment cells were harvested from exponential phase cultures by trypsination, counted and plated into 96 well flat-bottom micro titer plates depending on the cell line as listed below:
(§13) After a 24 h recovery to allow the cells to resume exponential growth, the test compounds were diluted immediately prior to use and transferred in 25 μl volume to the wells.
(§14) Following 2 days of continuous drug exposure 50 μl of freshly prepared XTT-PMS solution {2% 0.386 mg/ml PMS (N-Methyl Dibenzopyrazine Methylsulphate; Sigma, Cat. No. P9625) in PBS+98% 1 mg/ml XTT (Sodium 2,3-bis(2-methoxy-4-nitro-5-sulfophenyl)-5-[(phenylamino)carbonyl]-2H-Tetrazolium; Serva, Cat. No. 38450) in RPMI 1640 medium without phenol red} was added to the wells. To measure the proportion of living cells, the cells were incubated for 3 h with XTT-PMS reagent at 37° C., 5% CO2, humidified atmosphere allowing to form the formazan salt. The amount of soluble formazan salt produced by cellular reduction of XTT is quantified by measuring the absorbance at 490 nm using the Biomek® 2000 ELISA plate reader. %-inhibition (cytotoxicity) of each test compound was calculated in relation to untreated control cells. Inhibition curves were generated and IC50 values calculated by using GraphPad Prism.

[11] = system: SKOV-3 (human ovary adenocarcinoma) cells; test: XTT cytotoxicity assay, SKOV-3 cells; format: cell-based; conditions: Homo sapiens, SK-OV-3, second set of experiments, read-out: SKOV-3 % INH [100 μM]
Protocol: On the first day of the experiment cells were harvested from exponential phase cultures by trypsination, counted and plated into 96 well flat-bottom micro titer plates depending on the cell line as listed below: [table] After a 24 h recovery to allow the cells to resume exponential growth, the test compounds were diluted immediately prior to use and transferred in 25 μl volume to the wells. Following 2 days of continuous drug exposure 50 μl of freshly prepared XTT-PMS solution {2% 0.386 mg/ml PMS (N-Methyl Dibenzopyrazine Methylsulphate; Sigma, Cat. No. […] Serva, Cat. No. 38450) in RPMI 1640 medium without phenol red} was added to the wells. To measure the proportion of living cells, the cells were incubated for 3 h with XTT-PMS reagent at 37° C., 5% CO2, humidified atmosphere allowing to form the formazan salt. […] Inhibition curves were generated and IC50 values calculated by using GraphPad Prism.

[12] = system: PC3, RKOp21 and SKOV-3 cell lines; test: XTT cytotoxicity assay, mean over all three cell lines; format: cell-based, human; conditions: mean value over all three cell lines
Protocol: Following 2 days of continuous drug exposure 50 μl of freshly prepared XTT-PMS solution {2% 0.386 mg/ml PMS (N-Methyl Dibenzopyrazine Methylsulphate; Sigma, Cat. No. […] Serva, Cat. No. 38450) in RPMI 1640 medium without phenol red} was added to the wells. To measure the proportion of living cells, the cells were incubated for 3 h with XTT-PMS reagent at 37° C., 5% CO2, humidified atmosphere allowing to form the formazan salt. […] Inhibition curves were generated and IC50 values calculated by using GraphPad Prism. In the following table 7 cytotoxicity results (% inhibition of cell growth) obtained in the second set of experiments for selected compounds of the invention are presented in comparison to examples of the prior art (perifosine, miltefosine). The results presented are individual values for the respective cell line as well as the mean value over all three cell lines tested.

[13] = system: RKOp21 (human colon adenocarcinoma) cells; test: XTT cytotoxicity assay, RKOp21 cells; format: cell-based; conditions: Homo sapiens; 31.6 μM, second set of experiments; read-out: RKOp21 % INH [31.6 μM]
Protocol: as §6, §7, §8, §9, §10, §11, §12, §13, §14

[14] = system: Bacteroides fragilis DSM 2151 (ATCC 25285); test: Anti-bacterial bouillon microdilution assay (MIC), bacterium E; format: cell-based; conditions: anaerob, 24 h
Protocol: (§15) Selected compounds of the invention were tested in a bouillon microdilution assay method according to the DIN 58940 (www.din.de) guidelines for determination of susceptibility of bacterial strains with regard to cell growth inhibition. The assay method quantifies bacterial cell growth which corresponds to the turbidity of the liquid culture medium by photometric measurement carried out at 595 nm.
(§16) The method of MIC determination was performed according to DIN 58940-5. The volumina were adapted according to the microdilution method as described in DIN 58940-7 guideline.
(§17) Dependent on water solubility, compounds of the invention were dissolved either in water or ethanol in a concentration of 10 mg/ml. Subsequently, the stock was further diluted in water to a concentration of 512 μg/ml. The following serial dilutions (factor 2) were performed in water resulting in the following […] testing concentrations: 256 μg/ml, 128 μg/ml, 64 μg/ml, 32 μg/ml, 16 μg/ml, 8 μg/ml, 4 μg/ml, 2 μg/ml, 1 μg/ml, 0.5 μg/ml, 0.25 μg/ml and 0.125 μg/ml. Diluted compounds of the invention were transferred in 100 μl volume to the microtiter plate wells.
(§18) Pre-cultures of bacteria were grown in appropriate liquid media (refer to ATCC webpage, www.atcc.org) and afterwards were inoculated in corresponding liquid medium. 100 μl of the inoculums [adjusted to an amount of app. 1×10^6 microorganisms per ml (range of 10^5-10^8 microorganisms per ml)] were added to each of the testing compound concentrations and cultivated under the appropriate conditions.
(§19) Before and after incubation, bacterial growth was determined by photometric analysis against a positive control containing growing bacteria without compound and a sterile/negative control containing only the medium.

[15] = system: Moraxella catarrhalis DMS 11994 (ATCC 43617); test: Anti-bacterial bouillon microdilution assay (MIC), bacterium D; format: cell-based; conditions: ATCC43617, 24 h
Protocol: as §15, §16, §17, §18, §19

Row | SMILES | MIC, fungus D [1] | MIC, fungus I [2] | MIC, fungus F (Candida albicans TS3) | MIC, fungus A [3] | MIC, fungus H [4] | MIC, fungus B [5] | MIC, fungus E [6] | MIC, fungus C [7] | MIC, fungus J [8] | MIC, fungus G [9] | inhibition at 31.6 µM [10] | inhibition at 100 µM [11] | Mean % INH [12] | inhibition at 31.6 µM [13] | MIC [14] | MIC [15]
1 | CCCCCCCCCCCCCCCCCCOP(=O)([O-])OCC[As+](C)(C)C [Compound 22, Phosphoric acid octadecyl ester 2-(N,N,N-trimethyl-arsen)-ethyl ester] | 0.5 µg/mL | 6.6 µg/mL | 1 µg/mL | 3 µg/mL | 1.5 µg/mL | 2 µg/mL | 1 µg/mL | 3 µg/mL | 0.5 µg/mL | 1 µg/mL | – | – | – | – | – | –
2 | CCCCCCCCCCCCCCCCOP(=O)([O-])OCC[N+]1(C)CCCC1 [Compound 90] | – | – | – | – | – | – | – | – | – | – | 55.5% | 54.6% | 54.0% | 51.9% | 128 µg/mL (≈ 295 µM) | –
3 | CCCCCCCCCCCCCCCCOP(=O)([O-])OCC[N+]1(C)C=CC(C(=O)OCC)CC1 (stereo not shown) [Compound 266] | – | – | – | – | – | – | – | – | – | – | 25.8% | 8.5% | 13.6% | 6.6% | 128 µg/mL (≈ 247 µM) | 8 µg/mL (≈ 15.5 µM)
4 | CCCCCCCC/C=C\CCCCCCCCCCCCOP(=O)([O-])OCC[N+](C)(C)C [ErPC, (13Z)-docosenylphosphocholine, reference compound] | >64 µg/mL | 3 µg/mL (≈ 6.13 µM) | 64 µg/mL (≈ 131 µM) | >64 µg/mL | 4 µg/mL (≈ 8.17 µM) | >64 µg/mL | >64 µg/mL | >64 µg/mL | 1.5 µg/mL (≈ 3.06 µM) | 64 µg/mL (≈ 131 µM) | – | – | – | – | – | –
